Laboratory results taken from DBAASP.
Converted amounts (≈) assume the structure as drawn. “And” between values parts separate entries of the source, which are not always exact repeats. Identical values can stand only once.

Tests used:
Assay in all cases: ≥ marks a high value that may be exact or a test limit, other limits are often not marked, values filed in µg/mL are converted to µM
[1] = tested on: Klebsiella oxytoca ATCC 49131
[2] = tested on: Proteus vulgaris ATCC 49132
[3] = tested on: Pseudomonas aeruginosa ATCC 27853
[4] = tested on: Candida albicans ATCC 37092
[5] = tested on: Candida tropicalis ATCC 37097
[6] = tested on: Escherichia coli ATCC 25922
[7] = tested on: Staphylococcus aureus ATCC 29213
[8] = tested on: Staphylococcus aureus
[9] = tested on: Escherichia coli W160-37
[10] = tested on: Listeria monocytogenes ATCC 19111
[11] = tested on: Pseudomonas aeruginosa IFO 12582
[12] = tested on: Escherichia coli IFO 12734
[13] = tested on: Staphylococcus aureus IFO 12732
[14] = tested on: Bacillus subtilis IFO 3134
[15] = tested on: Bacillus subtilis NBRC 3513
[16] = tested on: Bacillus megaterium ATCC 19213
[17] = tested on: Staphylococcus epidermidis NBRC 12933
[18] = tested on: Staphylococcus aureus NBRC 12732
[19] = tested on: Streptococcus pneumoniae ATCC 49619
[20] = tested on: Enterobacter cloacae 2524
[21] = tested on: Staphylococcus aureus ATCC 25923
[22] = tested on: Acinetobacter baumannii
[23] = tested on: Escherichia coli 170
[24] = tested on: Klebsiella pneumoniae 913
[25] = tested on: Enterobacter cloacae 6780
[26] = tested on: Klebsiella pneumoniae ST258
[27] = tested on: Pseudomonas aeruginosa 4677
[28] = tested on: Escherichia coli 4530
[29] = tested on: Salmonella typhimurium
[30] = tested on: Klebsiella pneumoniae 1625

CC(C)C[C@H](NC(=O)[C@H](CCCN=C(N)N)NC(=O)[C@H](CCCN=C(N)N)NC(=O)[C@H](Cc1ccc(O)cc1)NC(=O)[C@H](CC(C)C)NC(=O)[C@@H](N)CCCN=C(N)N)C(=O)N[C@@H](Cc1ccc(O)cc1)C(=O)N[C@@H](CCCN=C(N)N)C(N)=O [RLYRRLYR]
MIC [1]: 14.1 µM and 13.1 µM | MIC [2]: 10.2 µM and 18.4 µM | MIC [3]: 4.1 µM and 8.7 µM | MIC [4]: 9 µM and 17.4 µM | MIC [5]: 1.4 µM and 3.2 µM | MIC [6]: 39 µM and 33.6 µM | MIC [7]: 8.1 µM and 17.5 µM

CC[C@H](C)[C@H](N)C(=O)N[C@@H](CC(C)C)C(=O)N1CCC[C@H]1C(=O)N[C@@H](Cc1c[nH]c2ccccc12)C(=O)N[C@@H](CCCCN)C(=O)N[C@@H](CC(C)C)C(=O)N1CCC[C@H]1C(=O)N[C@@H](CC(C)C)C(=O)N[C@@H](CC(C)C)C(=O)N1CCC[C@H]1C(=O)N[C@@H](CC(C)C)C(=O)N[C@@H](CCCN=C(N)N)C(=O)N[C@@H](CCCN=C(N)N)C(N)=O [ILPWKLPLLPLRR]
MIC [8]: 6.19 µM (≈ 9.99 µg/mL) | MIC [9]: 9.29 µM (≈ 15 µg/mL)

CSCC[C@H](NC(=O)CNC(=O)[C@@H](NC(=O)[C@@H]1CCCN1C(=O)[C@H](CCSC)NC(=O)CNC(=O)[C@H](CC(N)=O)NC(=O)[C@H](CC(N)=O)NC(=O)[C@H](Cc1ccc(O)cc1)NC(=O)[C@@H](NC(=O)[C@H](CCCN=C(N)N)NC(=O)[C@H](CS)NC(=O)[C@H](CCCN=C(N)N)NC(=O)[C@H](Cc1cnc[nH]1)NC(=O)[C@H](CCCCN)NC(=O)[C@H](CCCCN)NC(=O)[C@H](CCCN=C(N)N)NC(=O)[C@@H](N)CCCCN)C(C)C)[C@@H](C)O)C(=O)N[C@@H](Cc1ccc(O)cc1)C(=O)N[C@@H](CCCN=C(N)N)C(=O)N[C@@H](Cc1c[nH]c2ccccc12)C(=O)N[C@@H](CS)C(=O)O [KRKKHRCRVYNNGMPTGMYRWC]
MIC [10]: 8 µM (≈ 22.3 µg/mL)

CC[C@H](C)[C@H](NC(=O)[C@H](C)NC(=O)[C@@H]1CCCN1C(=O)[C@@H](NC(=O)[C@@H](NC(=O)[C@H](Cc1cnc[nH]1)NC(=O)[C@H](C)NC(=O)[C@H](C)NC(=O)[C@@H](NC(=O)[C@H](CCCCN)NC(=O)[C@H](C)NC(=O)[C@H](CC(C)C)NC(=O)[C@@H](NC(=O)CNC(=O)[C@H](Cc1ccccc1)NC(=O)[C@H](CC(C)C)NC(=O)CN)C(C)C)C(C)C)C(C)C)C(C)C)C(=O)N[C@@H](C)C(=O)N[C@@H](CCCCN)C(=O)N[C@@H](Cc1cnc[nH]1)C(=O)N[C@@H](Cc1ccccc1)C(N)=O [GLFGVLAKVAAHVVPAIAKHF]
MIC [11]: ≥ 32 µM | MIC [12]: 16 µM (≈ 34.3 µg/mL) | MIC [13]: 4 µM (≈ 8.58 µg/mL) | MIC [14]: 4 µM (≈ 8.58 µg/mL)

CC[C@H](C)[C@H](NC(=O)[C@H](C)N)C(=O)N[C@@H](Cc1ccccc1)C(=O)N[C@H](C(=O)N[C@@H](Cc1ccccc1)C(=O)N[C@H](C(=O)N[C@@H](CCCN=C(N)N)C(=O)N[C@@H](Cc1c[nH]c2ccccc12)C(=O)N[C@@H](CC(C)C)C(=O)N[C@@H](CC(C)C)C(=O)N[C@@H](CCCCN)C(=O)N[C@@H](CC(C)C)C(=O)NCC(=O)N[C@@H](Cc1cnc[nH]1)C(=O)N[C@@H](Cc1cnc[nH]1)C(=O)NCC(=O)N[C@@H](CCCN=C(N)N)C(=O)O)[C@@H](C)CC)[C@@H](C)CC [AIFIFIRWLLKLGHHGR]
MIC [15]: 16 µM (≈ 33.2 µg/mL) | MIC [16]: 4 µM (≈ 8.31 µg/mL) | MIC [17]: 8 µM (≈ 16.6 µg/mL) | MIC [18]: 4 µM (≈ 8.31 µg/mL)

CC[C@H](C)[C@H](NC(=O)CN)C(=O)N[C@@H](CC(C)C)C(=O)N[C@@H](CCCCN)C(=O)N[C@H](C(=O)N[C@H](C(=O)N[C@@H](CCCCN)C(=O)N[C@@H](CO)C(=O)N[C@H](C(=O)N[C@@H](C)C(=O)N[C@@H](CO)C(=O)N[C@@H](CCCCN)C(=O)N[C@@H](CC(C)C)C(=O)N[C@@H](CCCCN)C(=O)N[C@@H](CCCN=C(N)N)C(=O)N[C@@H](CCCCN)C(=O)N[C@@H](C)C(=O)N[C@@H](CCCCN)C(=O)O)[C@@H](C)CC)[C@@H](C)CC)[C@@H](C)O [GILKTIKSIASKLKRKAK]
MIC [19]: ≥ 50 µM | MIC [20]: ≥ 50 µM | MIC [21]: > 25.2 µM | MIC [3]: > 25.2 µM | MIC [22]: 2.21 µM (≈ 4.38 µg/mL) | MIC [23]: 1.56 µM (≈ 3.09 µg/mL) | MIC [24]: 3.12 µM (≈ 6.19 µg/mL) | MIC [25]: 3.12 µM (≈ 6.19 µg/mL) | MIC [26]: 25.2 µM (≈ 50 µg/mL) | MIC [27]: 25 µM (≈ 49.6 µg/mL) | MIC [6]: 1.56 µM (≈ 3.09 µg/mL) | MIC [28]: 25 µM (≈ 49.6 µg/mL) | MIC [29]: 1.6 µM (≈ 3.17 µg/mL) | MIC [30]: 1.56 µM (≈ 3.09 µg/mL)
